Counter-ions that a name gives are not always drawn.
How the values were obtained:
Type in all cases: biochemical
[1] = target: T1, hCB-1 (Homo sapiens, UniProt P21554); test: hCB1-Sf9 antagonist mode SPA GTP-γ-35S binding assay; parameters: purchased Applied Cell Sciences, Rockville, Md; details: Sf9 membrane 22.7 μg; antagonist mode vs methanandamide; read-out: hCB-1 SPA GTPγS Sf9 Membrane 22.7 μg Antagonist Kb
Method: Compounds of the present invention may be tested for functional activity at the CB-1 and CB-2 receptors in both agonist and antagonist modes using SPA (Scintillation Proximity Assay) based GTP-γ-^35S binding assays. All assay components are prepared in assay buffer (20 mM HEPES, 100 mM NaCl, 5 mM MgCl2, pH 7.4) at room temperature. Semi-log dilutions of test compound are prepared in assay buffer containing BSA (0.125% final conc.) for the agonist mode assays. For the antagonist mode assays, test compounds are prepared in the same manner but also include an 80% efficacious dose of a full agonist (methanandamide). GTP-γ^35S binding for the antagonist assay may be measured in a 96 well format using a modification of an antibody capture technique previously described. (DeLapp, N W, et al. (1999) J Pharmacol Exp Ther 289:946-955.) The CB-2 receptor agonist activity may be measured using a similar method using hCB2-Sf9 membranes. The CB-1 receptor agonist activity may be measured using a whole membrane capture technique using hCB1-CHO membranes. All incubations are done at room temperature. […]
Data are analyzed as follows: Background is subtracted from all wells. […] Percent antagonist inhibition is calculated by first normalizing the data to the signal generated by a saturating concentration of the full agonist (methanandamide). Then the data are analyzed using a 4-parameter logistic reduced fit (Activity Base™ and XLFit3™ from IDBS, Emeryville, Calif.). Kb values are determined using a modification of the Cheng-Prusoff relationship: Kb=IC50/(1+[agonist]/EC50), where “IC50” is determined from a four parameter fit of displacement curves, “[agonist]” is the agonist challenge concentration (nM), and “EC50” is determined from a four parameter fit of a full agonist concentration response curve (Cheng and Prusoff 1973). Mean Kb values are calculated as a mean of at least three independent determinations±standard error of the mean (SEM). […]

[2] = target: T1, hCB-1; test: hCB1-CHO antagonist mode SPA GTP-γ-35S binding assay; parameters: purchased Applied Cell Sciences, Rockville, Md; host or cells: CHO cell membranes; details: antagonist mode vs methanandamide; read-out: hCB-1 SPA GTPγS CHO Membrane Antagonist Kb
Method: (§1) Compounds of the present invention may be tested for functional activity at the CB-1 and CB-2 receptors in both agonist and antagonist modes using SPA (Scintillation Proximity Assay) based GTP-γ-^35S binding assays. All assay components are prepared in assay buffer (20 mM HEPES, 100 mM NaCl, 5 mM MgCl2, pH 7.4) at room temperature. Semi-log dilutions of test compound are prepared in assay buffer containing BSA (0.125% final conc.) for the agonist mode assays. For the antagonist mode assays, test compounds are prepared in the same manner but also include an 80% efficacious dose of a full agonist (methanandamide). GTP-γ^35S binding for the antagonist assay may be measured in a 96 well format using a modification of an antibody capture technique previously described. (DeLapp, N W, et al. (1999) J Pharmacol Exp Ther 289:946-955.) The CB-2 receptor agonist activity may be measured using a similar method using hCB2-Sf9 membranes. The CB-1 receptor agonist activity may be measured using a whole membrane capture technique using hCB1-CHO membranes. All incubations are done at room temperature.
(§2) hCB1-CHO or rCB1-CHO membranes (Applied Cell Sciences, Rockville, Md.) and GDP (1 μM final) are added to ice cold assay buffer and homogenized. […] Plates are then centrifuged at 700×g for 10 min. and the radioactivity counted.
(§3) Data are analyzed as follows: Background is subtracted from all wells. […] Percent antagonist inhibition is calculated by first normalizing the data to the signal generated by a saturating concentration of the full agonist (methanandamide). Then the data are analyzed using a 4-parameter logistic reduced fit (Activity Base™ and XLFit3™ from IDBS, Emeryville, Calif.). Kb values are determined using a modification of the Cheng-Prusoff relationship: Kb=IC50/(1+[agonist]/EC50), where “IC50” is determined from a four parameter fit of displacement curves, “[agonist]” is the agonist challenge concentration (nM), and “EC50” is determined from a four parameter fit of a full agonist concentration response curve (Cheng and Prusoff 1973). […]

[3] = target: T1, hCB-1; test: hCB1-CHO agonist mode SPA GTP-γ-35S binding assay; parameters: purchased Applied Cell Sciences, Rockville, Md; host or cells: CHO cell membranes; details: inverse agonism, read-out: hCB-1 SPA GTPγS CHO Membrane Agonist Relative EC50 inverse
Method: as §1
hCB1-CHO membrane, GDP (1 μM final conc.), and saponin (10 μg/mL final conc., Sigma, St Louis, Mo.) are combined and prepared on ice as for the antagonist assays, above. Diluted test compounds, GTP-γ-^35S ([…] final conc.) and membranes are combined in the assay plate and incubated for 30 min. Then 1 mg/well Wheatgerm Agglutinin SPA beads (GE Healthcare, Piscataway, N.J.) are added, plates are sealed and vortexed and incubate for 1 hr. before spinning and counting in the same fashion as for the antagonist assays, above.
Data are analyzed as follows: Background is subtracted from all wells. Percent agonist efficacy is determine by normalizing agonist/inverse agonist dose response data to the response obtained for a full agonist (methanandamide). Percent antagonist inhibition is calculated by first normalizing the data to the signal generated by a saturating concentration of the full agonist (methanandamide). Then the data are analyzed using a 4-parameter logistic reduced fit (Activity Base™ and XLFit3™ from IDBS, Emeryville, Calif.). Kb values are determined using a modification of the Cheng-Prusoff relationship: Kb=IC50/(1+[agonist]/EC50), where “IC50” is determined from a four parameter fit of displacement curves, “[agonist]” is the agonist challenge concentration (nM), and “EC50” is determined from a four parameter fit of a full agonist concentration response curve (Cheng and Prusoff 1973). Mean Kb values are calculated as a mean of at least three independent determinations±standard error of the mean (SEM). […]

[4] = target: T2, rCB-1 (Rattus norvegicus, UniProt P20272); test: rCB1-CHO antagonist mode SPA GTP-γ-35S binding assay; details: antagonist mode vs methanandamide; read-out: rCB-1 SPA GTPγS CHO Membrane Antagonist Kb
T2 construct: purchased Applied Cell Sciences, Rockville, Md; host or cells: CHO cell membranes
Method: as §1, §2, §3

T1 sequence (P21554 whole entry): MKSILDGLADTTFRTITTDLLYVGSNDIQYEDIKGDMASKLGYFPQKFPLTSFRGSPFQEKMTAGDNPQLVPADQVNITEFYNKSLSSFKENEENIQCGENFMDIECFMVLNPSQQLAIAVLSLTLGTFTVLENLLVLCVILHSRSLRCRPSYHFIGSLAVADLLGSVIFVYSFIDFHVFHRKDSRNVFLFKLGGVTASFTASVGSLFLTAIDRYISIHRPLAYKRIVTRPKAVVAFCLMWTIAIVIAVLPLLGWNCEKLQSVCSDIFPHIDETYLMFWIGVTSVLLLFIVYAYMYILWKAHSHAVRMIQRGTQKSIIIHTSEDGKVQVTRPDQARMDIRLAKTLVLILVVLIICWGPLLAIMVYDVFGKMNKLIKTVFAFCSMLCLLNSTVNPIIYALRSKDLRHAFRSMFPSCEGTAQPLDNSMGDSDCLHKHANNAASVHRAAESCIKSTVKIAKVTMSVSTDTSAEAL
T2 sequence (P20272 whole entry): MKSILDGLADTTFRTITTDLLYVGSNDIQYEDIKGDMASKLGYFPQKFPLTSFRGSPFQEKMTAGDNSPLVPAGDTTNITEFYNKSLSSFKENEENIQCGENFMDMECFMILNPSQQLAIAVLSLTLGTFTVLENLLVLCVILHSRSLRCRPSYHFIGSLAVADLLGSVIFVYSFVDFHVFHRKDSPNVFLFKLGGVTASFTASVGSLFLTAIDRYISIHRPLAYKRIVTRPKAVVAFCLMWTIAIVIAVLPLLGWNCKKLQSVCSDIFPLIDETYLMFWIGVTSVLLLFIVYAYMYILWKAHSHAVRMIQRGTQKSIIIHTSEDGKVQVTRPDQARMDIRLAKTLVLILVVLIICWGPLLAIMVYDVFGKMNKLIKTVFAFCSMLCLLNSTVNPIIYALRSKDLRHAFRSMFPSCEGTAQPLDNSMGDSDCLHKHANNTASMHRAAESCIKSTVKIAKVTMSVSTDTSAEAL

For `CC(C)(N[C@@H]1C[C@H](c2cccc(C(F)(F)F)c2)N(c2ccc(OC(F)(F)F)cc2)C1=O)c1cccc(C(F)(F)F)n1` [28 HCl salt, (3R,5R)-3-[1-methyl-1-(6-trifluoromethyl-pyridin-2-yl)-ethylamino]-1-(4-trifluoromethoxy-phenyl)-5-(3-trifluoromethyl-phenyl)-pyrrolidin-2-one], the Kb [1] was 0.59 nM, the Kb [2] was 0.464 nM and the EC50 [3] was 1.27 nM. It also gave a Kb [4] of 0.196 nM.
